Measured values from patent publication US20040213771A1, “Targets and screens for agents useful in controlling parasitic nematodes” (priority 2001, published 2004).
Where two headings read alike, the source gives them in different places.

Assays:
[1] = test system: C. elegans wild-type (N2) and nhr-8(ok186) mutant animals; details: for Sensitivity of nhr-8(ok186) mutant animals compared with wild-type (N2), L1 assay: 1% DMSO, 20° C., ~72 hours, FIGS. 13 and 14
Protocol: Assays for nematode sensitivity to toxic compounds known to induce mammalian cytochrome P450 expression (β-naphthaflavone, primaquine, and atrazine, available from Sigma) were performed in polystyrene 24-well tissue culture plates (Costar, Corning, N.Y.). Each culture well was filled with 0.8 ml of NGM agar (Lewis, J. A. and J. T. Fleming, Basic culture methods, in Caenorhabditis elegans: Modern Biological Analysis of an Organism, H. F. Epstein and D. C. Shakes, Editors. 1995, Academic Press: San Diego, Calif. pp. 3-29) containing compound additions as indicated. Compound solutions and dilutions were prepared in DMSO, and the appropriate amounts of compound were added to aliquots of molten NGM agar (equilibrated in a 55° C. water bath) prior to pouring the wells. For each compound, assays were performed using a range of final compound concentrations in the agar (0, 2, 5, 10, 20 and 30 ug/ml β-naphthoflavone; 0, 25, 50, 100, 250, and 77 ug/ml atrazine; 0, 20, 40, 60, 80 and 100 ug/ml primaquine). The final concentration of DMSO in the agar was 1% in every case, and controls of no addition and of 1% DMSO were also included in every assay series. Once the agar was solidified, each well was seeded with a lawn of E. coli OP50-1 prior to the addition of nematodes. All assays were performed in duplicate. Two different assay strategies were used to assess compound effects on nematode growth and viability: L1 assay: Synchrono5us nematode cultures of the wild-type strain N2 and of the mutant nhr-8(ok186) were obtained by isolating L1 larvae as described Lewis, J. A. and J. T. Fleming, Basic culture methods, in Caenorhabditis elegans: Modern Biological Analysis of an Organism, H. F. Epstein and D. C. […] The actual number of worms in each well was determined by direct count. […] After incubation at 20° C. for ˜72 hours, larval growth was assessed in each well by counting the number of gravid adults, L4 larvae/non-gravid adults, and larvae younger than the L4 stage. […] This difference was recorded as a “missing” class.

[2] = test system: C. elegans wild type (N2), nhr-8(ok186), pgp-3(pk18) and nhr-8(ok186); pgp-3(pk18) worms
Protocol: Assays for nematode killing by selected toxins were performed in polystyrene 12-well tissue culture plates from Costar (Corning, N.Y.). Concentrated stock solutions of toxins were purified by filtration through 0.2 μm nitrocellulose filters (Corning, Corning, N.Y.). Because the toxin concentrations were not measured following filtration, the molarities of the solutions are estimates. Concentrated toxin stock solutions were serially diluted with S media (0.1 M NaCl, 0.05M potassium phosphate, 5 μg/ml cholesterol, 0.05 mM disodium EDTA, 0.025 mM FeSO4.7H2O, 0.001 mM MnCl2.4H2O, 0.001 mM ZnSO4.7H2O, 0.0001 mM CuSO4.5H2O, […]) to produce appropriate working solutions. To provide a bacterial food source, a saturated culture of E. coli OP50 [43] grown in LB was pelleted and resuspended in each toxin solution. For each 50 ml of toxin solution, 25 ml of the bacterial culture was pelleted for resuspension. Serial dilutions were made in bulk and aliquoted into individual wells (1 ml per well).
To assess killing by the toxins, single hermaphrodites were allowed to lay eggs in individual wells for a 12 hour interval, then transferred to fresh wells. Hatched larvae in each well were counted 12 hours after removal of the hermaphrodite and observed over the course of seven days for development and survival to adulthood [wild type animals complete postembryonic development within 3 days, 29].

[3] = test system: C. elegans CYP genes (CYP35A1-A5, CYP35B1-B3, CYP35C, CYP31A1, CYP31A3); experiment: Induction of cytochrome P450 gene expression, semi-quantitative RT-PCR; type: in vivo, Caenorhabditis elegans; details: 5 ug/ml beta-naphthaflavone plus 1% DMSO or 1 mM chloroquine; ~72 hours at 20° C.; observed in both N2 and nhr-8(ok186) animals; FIG. 15
Protocol: The plates were incubated at 20° C. for ˜72 hours to allow for nematode growth and exposure to compound. Nematodes were then harvested, washed 3× in M9 to remove residual bacteria, and flash frozen in liquid nitrogen. Total RNA was isolated from the frozen nematodes as described (Sluder, A., S. W. Mathews, D. Hough, V. P. Yin, and C. V. Maina, The nuclear receptor superfamily has undergone extensive proliferation and diversification in nematodes. Genome Research, 1999. 9: 103-120).
The levels of cytochrome P450 mRNA in each RNA prep were assayed by semi-quantitative RT-PCR, using primers for specific cytochrome P450 gene sequences presented in Tables 5 and 6, in which nucleotides at degenerate positions are indicated using (N/N). […] Prior to performing PCR amplification to assess gene expression levels, the number of amplification cycles to be employed with each primer pair was selected to ensure that the amplification reactions remained within the linear reaction range [cycle number was selected as described in Johnstone, I. L. and J. D. Barry, Temporal reiteration of a precise gene expression pattern during nematode development Embo J. 1996, 15: 3633-3639, except that reaction products were analyzed by ethidium bromide-staining rather than Southern blotting]. […]

[4] = test system: C. elegans nhr-8(RNAi) worms; experiment: Colchicine toxicity assay after RNA-mediated interference of nhr-8; type: in vivo, Caenorhabditis elegans; details: nhr-8(RNAi) vs nhr-8(ok186); percentage surviving to the adult stage; FIG. 7
Protocol: Single RNA strands were produced with the Ambion MEGAscript in vitro transcription kit, using as template a PCR amplicon (produced from cm14e12 using primers EL-15 and T7) that lacked sequences encoding the NHR-8 DNA binding domain. To produce dsRNA, equal amounts of sense and antisense transcription reactions and 3× injection buffer (20 mM KPO4 pH 7.5, 3 mM KCitrate pH 7.5, 2% PEG6000) were combined and incubated on a thermal cycler for strand annealing (95° C., 20 sec.; reduced by 2° C. per 10 sec. cycle for 11 cycles). Both gonad arms of young adult hermaphrodites were injected with the dsRNA [25]. Following a 12 hour purge period to remove embryos unlikely to have received a full dose of dsRNA, the injected hermaphrodites were used in the colchicine toxicity assay described above.

SMILES | Sensitivity of nhr-8(ok186) mutant animals compared with wild-type (N2), L1 assay [1] | Toxin sensitivity of nhr-8(ok186) homozygotes compared with wild type animals (percentage surviving to the adult stage) ([2]; in vivo) | CYP genes whose expression was induced [3] | further results
COc1cc(NC(C)CCCN)c2ncccc2c1 (centres unmarked) [primaquine] | increased sensitivity |  |  | 
CCN(CC)CCCC(C)Nc1ccnc2cc(Cl)ccc12 (centres unmarked) [chloroquine] |  | more sensitive | CYP35A1, CYP35B1, CYP35B2, and CYP35B3 | Toxin sensitivity of nhr-8(ok186); pgp-3(pk18) double mutant animals compared with animals with only a single disrupted gene ([2]; in vivo): more sensitive
COc1cc2c(c(OC)c1OC)-c1ccc(OC)c(=O)cc1[C@@H](NC(C)=O)CC2 [colchicine] |  | more sensitive |  | Colchicine sensitivity after disruption of nhr-8 function by RNA mediated interference [4]: phenocopies the colchicine sensitivity of the nhr-8(ok186) mutants; Toxin sensitivity of nhr-8(ok186); pgp-3(pk18) double mutant animals compared with animals with only a single disrupted gene ([2]; double mutant vs single mutants, FIG. 6): more sensitive; Toxin sensitivity of nhr-8(ok186) animals compared with pgp-3 putative null mutants ([2]; nhr-8(ok186) vs pgp-3(pk18), FIG. 6): as sensitive
CCNc1nc(Cl)nc(NC(C)C)n1 [atrazine] | slightly increased sensitivity |  |  | 
O=c1cc(-c2ccccc2)oc2ccc3ccccc3c12 [β-naphthoflavone] |  |  | CYP35A3 and CYP35A4 | Difference in sensitivity of wild-type (N2) and nhr-8(ok186) mutant animals ([1]; preliminary experiments, data not shown): did not reveal any detectable differences
